Key:
[1] = tested on: oral glucose tolerance in rats; test: Glucose Tolerance Test (GTT) in rats; format: in vivo, Male albino rats of wistar strains; settings: rats loaded with glucose 5 g/kg 2 hours after dosing; P<0.05; glibenclamide 3 mg/Kg
From the text: Brief description of the accompanying drawings: Figure-1. Describes the effect of herbal formulation and glibenclamide on oral glucose tolerance tests in rats. From the above STZ induced diabetic model the composition 1 has chosen for GTT study. Male albino rats of wistar strains (150-200 g) were used. They were divided into three groups each containing 6 rats. They were randomly assigned A) control group B) standard group (glibenclamide) C) test group. Group A was given saline, group B was given glibenclamide (3 mg/Kg) and group C was given test compositions. After 2 hours all rats were loaded with glucose with a dose of 5 g/kg. Blood samples were taken from tail vein of conscious rats for every 30 minutes up to 3 hours. Plasma glucose estimations were done by glucose oxidase method by using Auto Blood Analyzer as described in FIG. 1. The statistical analysis was performed using Prism program (Graphpad software). Annova with post Newman—Keul test with P values was used to compare the treatment efficacy between the test groups.

[2] = tested on: STZ induced diabetic model; test: Plasma glucose level in streptozocin (STZ) induced diabetic rats, 15 days treatment; format: in vivo, Male albino rats of wistar strains; settings: n=6, glibenclamide 3 mg/Kg
Method: Male albino rats of wistar strains (150-200 g) were used throughout the studies. Rats were divided into eleven groups of each containing 6 rats. These animals were randomly assigned to the following groups which include (A) control group, (B) standard group (glibenclamide, 3 mg/Kg) and (C) test groups (F1-F9). Diabetes was induced by injecting streptozocin (STZ) in a dose of 65 mg/kg intra venous in 0.1M citrate buffer. Rats were kept fasted overnight but were given water ad libitum. After 48 hours of STZ injection, blood samples were taken from tail vein of conscious rats. The blood was centrifuged at 5000 rpm for 10 minutes in an eppendorf tubes containing EDTA (1 mg/ml of blood). Plasma glucose estimations were done by glucose oxidase method by using Auto blood analyzer (Techinicon RA-100, Bayer Diagnostics, Ireland). Animals with blood glucose level more than 250% of the fasting level were considered to be diabetic and were used for the experiment. Group A was given normal saline, group B was given glibenclamide and various groups of C were given herbal compositions for 15 days at least once in day. Blood was collected from tail veins of all the rats after 7 days and 15 days of treatment and glucose levels were estimated as described previously (Table 2). The statistical analysis was performed using Prism program (Graphpad software). […]

For `COc1ccc(Cl)cc1C(=O)NCCc1ccc(S(=O)(=O)NC(=O)NC2CCCCC2)cc1` [Glibenclamide], the “glucose tolerance compared to control group” value [1] was “increased”, the “% reduction in glucose levels” value ([2]; Day 7th of treatment) was 27 ± 2.6% and the “% reduction in glucose levels” value ([2]; Day 15th of treatment) was 38 ± 2.9%.
